Reference: paper PMC4191062, “Development of αGlcN(1↔1)αMan-Based Lipid A Mimetics as a Novel Class of Potent Toll-like Receptor 4 Agonists” (Journal of Medicinal Chemistry, 2014)
“Also recorded” adds a separate entry of the source.

Assays:
[1] = Storage stability in aqueous solution (MALDI-TOF analysis); assay type: physicochemical; conditions: 4 °C, several months, free acids at the phosphates
Procedure: Next, the free 6-OH group in the hexaacylated disaccharides 57 and 58 was phosphorylated by reaction with dibenzyl-(N,N′-diisopropylamino)phosphoramidite in the presence of a mild acid catalyst, 1H-tetrazole, and subsequent oxidation with mCPBA at −78 °C to furnish the bisphosphorylated hexaacylated products 61 and 62 in 91% and 89% yield, respectively. Final debenzylation by hydrogenation of 57, 61, and 62 on Pd-black followed by purification with gel permeation chromatography on Sephadex SX1 in toluene–methanol (2:1) afforded target bisphosphorylated Lipid A mimetics 1 and 2 and a monophosphorylated counterpart 3.

human dendritic cells [2] = assay: Cytokine production in human monocyte-derived dendritic cells (Luminex); assay type: cell-based; conditions: hDCs, 24 h
Procedure: Activated DCs were examined for the production of pro-inflammatory cytokines TNF-α, IL-6, and IL-12, which contribute to the modulation of the T cell response and innate effector functions.[57] The release of TNF-α and IL-6 reached nearly maximum levels (attained with 10 ng/mL LPS) at the α,α-GM-LAM 1 concentration of 1 ng/mL (Figure 7A).
Human peripheral blood monocytes were cultured for 6 days in GM-CSF and IL-4 to receive immature monocyte-derived DCs and were then stimulated with the indicated concentrations of 1 and 3 using 10 ng/mL LPS as positive control (solutions in PRMI containing 10% FCS and 0.005–0.01% DMSO). The amounts of IL-6, IL-12, IL-10, and TNF-α in the supernatants of the cells were analyzed after 24 h by Luminex. Results are representative of three independent experiments for 1 and of two experiments for 3. Mean values of duplicate examinations ± SD are presented.

human dendritic cells [3] = assay: Maturation marker expression in human dendritic cells (flow cytometry); assay type: cell-based; conditions: hDCs, 24 h; LPS 10 ng/ml
Text: To test the impact of selected α,α-GM-LAMs 1 and 3 on maturation of human dendritic cells (hDCs), immature monocyte-derived hDCs were stimulated with 1 and 3 in a wide concentration range or with E. coli LPS as positive control. DCs are able to persistently sense pathogen-associated molecular patterns and present antigens to T lymphocytes, thereby initiating an adaptive immune response.[7]
None of the α,α-GM-LAMs exerted cytotoxic effects on DCs, as determined by propidium iodide staining (data not shown). […]
stimulatory molecules CD86 as well as the antigen presenting structures MHC class I and MHC class II, which are necessary for the induction of an adaptive immune response (SI-Figure 5). […]
up-regulation of the inhibitory B7-H1 (CD272) and Sialoadhesin (CD169), which is known to be indirectly up-regulated in DCs due to release of type-I interferons. […]
stimulator not only of the NF-κB- but also of the IRF-pathway. Stimulation of DCs with the monophosphoryl α,α- […]
SI-Figure 5. Bisphosphoryl α,α-GM-LAM 1 and monophosphoryl α,α-GM-LAM 3 induce the expression of maturation markers in human DCs. […] The cells were then harvested and the surface expression level of the indicated markers was measured by flow cytometry. […]

Row | Structure (SMILES) | stability on storage in aqueous solution [1] | release of TNF-α, IL-6, and IL-10 compared to 1 (human dendritic cells [2]) | DCs maturation and up-regulation of CD86, MHC class I and MHC class II compared to LPS (human dendritic cells [3]) | concentration at which release of TNF-α and IL-6 reached nearly maximum levels (attained with 10 ng/mL LPS) (human dendritic cells [2]) | expression of IL-12 (human dendritic cells [2])
1 | CCCCCCCCCCCCCC(=O)O[C@H](CCCCCCCCCCC)CC(=O)O[C@@H]1[C@@H](NC(=O)C[C@@H](CCCCCCCCCCC)OC(=O)CCCCCCCCCCC)[C@@H](O[C@H]2O[C@H](COP(=O)(O)O)[C@@H](OC(=O)C[C@@H](CCCCCCCCCCC)OC(=O)CCCCCCCCC)[C@H](O)[C@@H]2OC)O[C@H](CO)[C@H]1OP(=O)(O)O [Compound 2, 4-O-[(R)-3-(Decanoyloxy)tetradecanoyl]-2-O-methyl-6-O-phosphoryl-α-mannopyranosyl-(1↔1)-2-deoxy-2-[(R)-3-(dodecanoyloxy)tetradecanoylamino]-4-O-phosphoryl-3-O-[(R)-3-(tetradecanoyloxy)tetradecanoyl]-α-D-glucopyranoside] | without any noticeable sign of degradation |  |  |  | 
2 | CCCCCCCCCCCCCC(=O)O[C@H](CCCCCCCCCCC)CC(=O)O[C@@H]1[C@@H](NC(=O)C[C@@H](CCCCCCCCCCC)OC(=O)CCCCCCCCCCC)[C@@H](O[C@H]2O[C@H](CO)[C@@H](OC(=O)C[C@@H](CCCCCCCCCCC)OC(=O)CCCCCCCCCCC)[C@H](O)[C@@H]2OC)O[C@H](CO)[C@H]1OP(=O)(O)O [Compound 3, 4-O-[(R)-3-(Dodecanoyloxy)tetradecanoyl]-2-O-methyl-α-D-mannopyranosyl-(1↔1)-2-deoxy-2-[(R)-3-(dodecanoyloxy)tetradecanoylamino]-4-O-phosphoryl-3-O-[(R)-3-(tetradecanoyloxy)tetradecanoyl]-α-D-glucopyranoside] |  | less efficient | less pronounced activation marker profile |  | 
3 | CCCCCCCCCCCCCC(=O)O[C@H](CCCCCCCCCCC)CC(=O)O[C@@H]1[C@@H](NC(=O)C[C@@H](CCCCCCCCCCC)OC(=O)CCCCCCCCCCC)[C@@H](O[C@H]2O[C@H](COP(=O)(O)O)[C@@H](OC(=O)C[C@@H](CCCCCCCCCCC)OC(=O)CCCCCCCCCCC)[C@H](O)[C@@H]2OC)O[C@H](CO)[C@H]1OP(=O)(O)O [Compound 1, 4-O-[(R)-3-(Dodecanoyloxy)tetradecanoyl]-2-O-methyl-6-O-phosphoryl-α-D-mannopyranosyl-(1↔1)-2-deoxy-2-[(R)-3-(dodecanoyloxy)tetradecanoylamino]-4-O-phosphoryl-3-O-[(R)-3-(tetradecanoyloxy)tetradecanoyl]-α-D-glucopyranoside] | without any noticeable sign of degradation |  | as potent as by LPS; also recorded: as potent as that with LPS | 1 ng/mL | efficiently induced
